Measured values published in patent publication US20250351832A1, “PHYTOCHEMICALS AS BIOPESTICIDES AND BIOSTIMULANTS” (KAY BEE BIO ORGANICS PVT. LTD., priority 2024, published 2025).
Like-named read-outs stand apart in the source and are kept apart here.

Columns and labels:
Thrips [1] = conditions: 48 h, 1 mL or g/L
[2] = cited from earlier work; for Phytotonic Effect: Table 13, effect on plants, descriptive
Thrips [3] = experiment: whole plant or invertebrate; conditions: in Gossypium hirsutum, 48 h
tomato seedlings = experiment: Response of tomato plants, greenhouse growth (Ex. 30); type: in vivo
Mite [4] = conditions: Dose 1 ml/gm/lit.; 48 hrs
Mealy Bug [5] = experiment: In vitro bio-efficacy against mealy bug (Ex. 16); conditions: in vivo
Helicoverpa armigera [6] = experiment: In vitro bio-efficacy against Helicoverpa armigera (Ex. 17); conditions: in vivo
Thrips [7] = experiment: Greenhouse effect on thrips, cotton plants (Ex. 27); conditions: in vivo
chili seedlings = experiment: Response of chili plants, greenhouse growth (Ex. 31); type: in vivo
Aphid [8] = experiment: whole plant or invertebrate; conditions: 48 h
Spodoptera litura [9] = experiment: Controlled conditions, Spodoptera litura on cabbage plants (Ex. 26); conditions: in vivo
Aphid [10] = system: Aphid
Aphid [11] = conditions: 48 h, 1 mL or g/L
Mite [12] = experiment: Green house effect on mite, okra plants (Ex. 23); conditions: in vivo
Spodoptera litura [13] = experiment: whole plant or invertebrate; conditions: 72 h
Helicoverpa armigera [14] = experiment: Controlled conditions, Helicoverpa armigera on chickpea plants (Ex. 25); conditions: in vivo
Thrips [15] = conditions: 48 h
Mealy Bug [16] = experiment: Green house effect on mealy bugs, cotton plants (Ex. 24); conditions: in vivo
Alternaria alternata [17] = experiment: In vitro poisoned food technique against fungus (Ex. 20); type: cell-based; conditions: poisoned food technique, PDA medium, dose 1 ml/gm/lit., after seven days; for inhibition of growth at 1 mL or g/L: vs untreated control, read-out: % Inhibition of growth
Spodoptera litura [18] = conditions: 72 h, 1 mL or g/L
Alternaria alternata [19] = experiment: Alternaria leaf spot/blight on inoculated tomato plants (Ex. 28); type: in vivo; conditions: tomato plants, Alternaria alternata; after 7 days; dose 1 ml/gm/lit
[20] = Table 13, descriptive, no test described
[21] = read-out: % Corrected Mortality at 48 Hrs.
[22] = read-out: % Mortality at 48 Hrs.
[23] = tomato seedlings, 10th day, dose 1 ml/gm/lit
[24] = tomato seedlings, dose 1 ml/gm/lit, 10th day
[25] = chili seedlings, dose 1 ml/gm/lit, 10th day
[26] = read-out: % Corrected Mortality at 72 Hrs.
[27] = read-out: % Mortality at 72 Hrs.
[28] = tomato seedlings, 5th day after application, dose 1 ml/gm/lit
[29] = tomato seedlings, 10th day after application, dose 1 ml/gm/lit
[30] = chili seedlings, dose 1 ml/gm/lit, 5th day after application
[31] = chili seedlings, dose 1 ml/gm/lit, 10th day after application

SMILES: C=CCc1ccc(O)c(OC)c1 [Eugenol]
- Total No. of dead insect at 48 Hrs. (Thrips [1]): 2.50
- Acaricidal Activity - Mode of action [2, 20]: Inhibitory effects against
- Antifungal Activity - Mode of action [2, 20]: Inhibition of myceial growth
- Antioxidant Activity - Mode of action [2, 20]: Scavenge free radicals,
- Bactericidal Activity - Mode of action [2, 20]: Alters membrane permeability
- Insecticidal Activities - Mode of action [2, 20]: Growth inhibitory,
- Nematicidal Activity - Mode of action [2, 20]: Inhibited egg differentiation
- Virucidal Activity - Mode of action [2, 20]: Inactivated the cell-free
- Phytotonic Effect [2]: Regulating
- mortality at 1 mL or g/L (Thrips [3]; [21]): 14.3%
- mortality at 1 mL or g/L (Thrips [3]; [22]): 25%
- CCI Pre (tomato seedlings): 11.50
- Plant Height Pre (tomato seedlings): 5.65 cm
- Stem Girth Pre (tomato seedlings): 1.34 mm
- CCI 5th Day (tomato seedlings; 120 h): 13.74
- Plant Height 5th Day (tomato seedlings; 120 h): 6.66 cm
- Stem Girth 5th Day (tomato seedlings; 120 h): 1.70 mm
- CCI 10th Day (tomato seedlings; 240 h): 15.48
- Plant Height 10th Day (tomato seedlings; 240 h): 7.56 cm
- Root Length % Increase over control (tomato seedlings; 240 h): 31.25%
- Stem Girth 10th Day (tomato seedlings; 240 h): 2.31 mm
- Plant Height % Increase over pre on 10th Day (tomato seedlings; [23]): 33.81%
- Stem Girth % Increase over pre on 10th Day (tomato seedlings; [23]): 72.90%
- CCI % Increase over pre on 10th Day (tomato seedlings; [24]): 34.61%
- Root Length (cm) 10th Day (tomato seedlings; [24]): 4.37 cm
- % Corrected Mortality at 48 Hrs. (Mite [4]): 48.65%
- % Corrected Mortality at 48 Hrs. (Mealy Bug [5]): 63.16%
- % Mortality at 48 Hrs. (Mealy Bug [5]): 65.00%
- % Corrected Mortality at 72 Hrs. (Helicoverpa armigera [6]): 47.50%
- % Mortality at 72 Hrs. (Helicoverpa armigera [6]): 47.50%
- % Corrected Mortality at 48 Hrs. (Thrips [7]): 19.44%
- % Mortality at 48 Hrs. (Thrips [7]): 27.50%
- CCI Pre (chili seedlings): 10.10
- Plant Height (cm) Pre (chili seedlings): 4.57 cm
- CCI 5th Day (chili seedlings; 120 h): 13.40
- Plant Height (cm) 5th Day (chili seedlings; 120 h): 6.53 cm
- CCI 10th Day (chili seedlings; 240 h): 15.48
- Plant Height (cm) 10th Day (chili seedlings; 240 h): 7.59 cm
- Root Lenght % Increase over control (chili seedlings; 240 h): 52.07%
- CCI % Increase over pre on 10th Day (chili seedlings; [25]): 53.27%
- Plant Height % Increase over pre on 10th Day (chili seedlings; [25]): 66.08%
- Root Lenght (cm) 10th Day (chili seedlings; [25]): 4.16 cm
- Stem Girth % Increase over pre on 10th Day (chili seedlings; [25]): 54.59%
- mortality at 1 mL or g/L (Aphid [8]; [21]): 58.8%
- mortality at 1 mL or g/L (Aphid [8]; [22]): 65%
- % Corrected Mortality at 72 Hrs. (Spodoptera litura [9]): 60.53%
- % Mortality at 72 Hrs. (Spodoptera litura [9]): 62.50%
- Total No. of dead insect at 48 Hrs. (Aphid [10]): 6.00
- % Corrected Mortality at 48 Hrs. (Aphid [10]; Dose 1 ml/gm/lit., 48 hrs): 54.29%
- % Mortality at 48 Hrs. (Aphid [10]; Dose 1 ml/gm/lit., 48 hrs): 60.00%
- Total No. of dead insect at 48 Hrs. (Aphid [11]): 65.00
- % Corrected Mortality at 48 Hrs. (Mite [12]): 50.00%
- % Mortality at 48 Hrs. (Mite [12]): 52.50%
- mortality at 1 mL or g/L (Spodoptera litura [13]; [26]): 57.9%
- mortality at 1 mL or g/L (Spodoptera litura [13]; [27]): 60%
- % Corrected Mortality at 72 Hrs. (Helicoverpa armigera [14]): 42.50%
- % Mortality at 72 Hrs. (Helicoverpa armigera [14]): 42.50%
- Total No. of dead insect at 48 Hrs. (Thrips [15]): 27.50
- % Corrected Mortality at 48 Hrs. (Mealy Bug [16]): 72.22%
- % Mortality at 48 Hrs. (Mealy Bug [16]): 75.00%
- inhibition of growth at 1 mL or g/L (Alternaria alternata [17]): 42.6%
- Total No. of dead insect at 72 Hrs. (Spodoptera litura [18]): 6.00

SMILES: C=CCc1ccc(OC)c(O)c1 [Chavibetol]
- Total No. of dead insect at 48 Hrs. (Thrips [1]): 5.25
- Antioxidant Activity - Mode of action [2, 20]: Increasing Antioxidative
- Bactericidal Activity - Mode of action [2, 20]: Inhibit the reproduction
- Insecticidal Activities - Mode of action [2, 20]: Repellent
- Phytotonic Effect [2]: trigger seed
- mortality at 1 mL or g/L (Thrips [3]; [21]): 45.7%
- mortality at 1 mL or g/L (Thrips [3]; [22]): 52.5%
- Plant Height 5th Day (tomato seedlings; [28]): 7.26 cm
- Stem Girth 5th Day (tomato seedlings; [28]): 1.49 mm
- Plant Height 10th Day (tomato seedlings; [29]): 8.34 cm
- Stem Girth 10th Day (tomato seedlings; [29]): 2.25 mm
- Plant Height % Increase over pre on 10th Day (tomato seedlings; [23]): 36.50%
- Stem Girth % Increase over pre on 10th Day (tomato seedlings; [23]): 60.71%
- CCI 5th Day (tomato seedlings; tomato seedlings, dose 1 ml/gm/lit, 5th day after application): 14.68
- CCI % Increase over pre on 10th Day (tomato seedlings; [24]): 32.22%
- Root Length (cm) 10th Day (tomato seedlings; [24]): 4.69 cm
- CCI 10th Day (tomato seedlings; tomato seedlings, dose 1 ml/gm/lit, 10th day after application): 16.58
- Root Length % Increase over control (tomato seedlings; tomato seedlings, dose 1 ml/gm/lit, 10th day, vs water control): 41.03%
- % Corrected Mortality at 48 Hrs. (Mite [4]): 18.92%
- % Mortality at 48 Hrs. (Mite [4]): 25.00%
- % Corrected Mortality at 48 Hrs. (Mealy Bug [5]): 36.84%
- % Mortality at 48 Hrs. (Mealy Bug [5]): 40.00%
- % Corrected Mortality at 72 Hrs. (Helicoverpa armigera [6]): 42.50%
- % Mortality at 72 Hrs. (Helicoverpa armigera [6]): 42.50%
- % Corrected Mortality at 48 Hrs. (Thrips [7]): 47.22%
- CCI Pre (chili seedlings): 9.82
- Plant Height (cm) Pre (chili seedlings): 4.39 cm
- CCI 5th Day (chili seedlings; [30]): 14.58
- Plant Height (cm) 5th Day (chili seedlings; [30]): 5.07 cm
- CCI % Increase over pre on 10th Day (chili seedlings; [25]): 52.55%
- Plant Height % Increase over pre on 10th Day (chili seedlings; [25]): 59.00%
- Root Lenght (cm) 10th Day (chili seedlings; [25]): 3.60 cm
- Stem Girth % Increase over pre on 10th Day (chili seedlings; [25]): 45.45%
- CCI 10th Day (chili seedlings; [31]): 14.98
- Plant Height (cm) 10th Day (chili seedlings; [31]): 6.98 cm
- Root Lenght % Increase over control (chili seedlings; chili seedlings, dose 1 ml/gm/lit, 10th day, vs water control): 31.63%
- mortality at 1 mL or g/L (Aphid [8]; [21]): 47.1%
- mortality at 1 mL or g/L (Aphid [8]; [22]): 55%
- % Corrected Mortality at 72 Hrs. (Spodoptera litura [9]): 41.05%
- % Mortality at 72 Hrs. (Spodoptera litura [9]): 44.00%
- Total No. of dead insect at 48 Hrs. (Aphid [10]): 5.50
- % Corrected Mortality at 48 Hrs. (Aphid [10]; Dose 1 ml/gm/lit., 48 hrs): 48.57%
- Total No. of dead insect at 48 Hrs. (Aphid [11]): 55.00
- % Corrected Mortality at 48 Hrs. (Mite [12]): 18.42%
- % Mortality at 48 Hrs. (Mite [12]): 22.50%
- mortality at 1 mL or g/L (Spodoptera litura [13]; [26]): 39.5%
- mortality at 1 mL or g/L (Spodoptera litura [13]; [27]): 42.5%
- % Corrected Mortality at 72 Hrs. (Helicoverpa armigera [14]): 47.50%
- % Mortality at 72 Hrs. (Helicoverpa armigera [14]): 47.50%
- Total No. of dead insect at 48 Hrs. (Thrips [15]): 52.50
- % Corrected Mortality at 48 Hrs. (Mealy Bug [16]): 38.89%
- % Mortality at 48 Hrs. (Mealy Bug [16]): 45.00%
- Mean colony Diameter (mm) (Alternaria alternata [17]): 55.50 mm
- inhibition of growth at 1 mL or g/L (Alternaria alternata [17]): 36.9%
- Total No. of dead insect at 72 Hrs. (Spodoptera litura [18]): 4.25
- % Disease reduction over Control (Alternaria alternata [19]): 47.11%
